Patent publication US8293782B2, “Compound, probe containing the novel compound, and fluorescence-imaging contrast agent containing the novel compound or the probe” (Canon Kabushiki Kaisha, priority 2009, dated 2012)

Assay: Fading evaluation in fetal bovine serum under interior light (680 LUX)
Format: physicochemical
Details: 5 μM in FBS, absorbance at maximum absorption wavelength after 24 hours
Procedure: The ordinate of FIG. 10 indicates log(At/A0) where A0 and At respectively represent absorbance at the maximum absorption wavelength after the lapse of 0 and t hours from the irradiation of the interior light. The fading rate in Table 1 is expressed by (A0-A24)/A0, that is, variation in absorbance at the maximum absorption wavelength after the lapse of 24 hours.

Fading rate (A0-A24)/A0: 4.5%
Substance: Alexa Fluor (trademark) 750 [Reagent 1]
